Key:
[1] = system: SH-SY5Y human neuroblastoma cell line; test: Cytotoxicity, Calcein AM viability assay on neuron-like SH-SY5Y cells; format: cell-based
Experimental: The SH-SY5Y human neuroblastoma cell line obtained from ECACC (The European Collection of Authenticated Cell Cultures) was cultivated in Dulbecco's modified Eagle's Medium and Ham's F12 Nutrient Mixture (DMEM:F-12, 1:1), supplemented with 10% fetal bovine serum (FBS) and 1% penicillin and streptomycin at 37° C. in a humidified atmosphere 5% CO2, 95% humidity in passage limit up to ECACC+20. The assay was performed in 96-well microplate with 7000 SH-SY5Y cells per well. After 48 h, old DMEM/F12 media was removed by fresh media containing tested compounds at 0.1, 1 and 10 μM concentrations for 24 h. Glial cell line A-172 purchased from ATCC and grown in same conditions as SH-SY5Y cell line. A-172 cells were seeded in density 2000 cells per well and growing medium was replaced by treatment medium containing tested compounds in 0.1, 1 and 10 μM concentration; or in higher concentrations for R-LA or NAC positive controls for 48 hours. All tested compounds dissolved in DMSO were added into the medium. The maximum concentration of DMSO in media was kept below 0.1% (v/v). The cell viability was measured by Calcein AM (1 mg/ml ThermoFisher) viability assay. Solution of Calcein AM in PBS (0.75 μM) was pipetted to cells and incubated for 50 min. After that the fluorescence was measured at 488/517 nm (excitation/emission) using microplate reader Infinite M200 (TECAN). Calcein AM assay is based on the dye-intracellular-esterase cleavage of non-fluorescent dye (Calcein AM) by living cells to fluorescent dye (Calcein), while dying cells lose such ability. The values in Table 2 show the % of viability compared to control for all tested compounds. The results from DMSO control (medium with DMSO, <0.1% (v/v)) was postulated as 100% viability (see the first line of Table 2).

glial A-172 cells [2] = test: Cytotoxicity, Calcein AM viability assay on glial A-172 cells; format: cell-based, human; conditions: NAC at 1000 μM
Experimental: The assay was performed in 96-well microplate with 7000 SH-SY5Y cells per well. After 48 h, old DMEM/F12 media was removed by fresh media containing tested compounds at 0.1, 1 and 10 μM concentrations for 24 h. Glial cell line A-172 purchased from ATCC and grown in same conditions as SH-SY5Y cell line. […] All tested compounds dissolved in DMSO were added into the medium. The maximum concentration of DMSO in media was kept below 0.1% (v/v). The cell viability was measured by Calcein AM (1 mg/ml ThermoFisher) viability assay. Solution of Calcein AM in PBS (0.75 μM) was pipetted to cells and incubated for 50 min. After that the fluorescence was measured at 488/517 nm (excitation/emission) using microplate reader Infinite M200 (TECAN). Calcein AM assay is based on the dye-intracellular-esterase cleavage of non-fluorescent dye (Calcein AM) by living cells to fluorescent dye (Calcein), while dying cells lose such ability.

[3] = system: human neuroblastoma cell line SH-SY5Y; test: Viability of differentiated SH-SY5Y in salsolinol-induced model of PD (Calcein AM); format: cell-based; conditions: difference between 800 μM SAL and co-treatment group means, 24 hours
Experimental: Similarly, as in previous “Safety test”, the SH-SY5Y cells were seeded at density 7000 cells/well. After 48 h differentiation, old 1% DMEM/F12 media was replaced by fresh media containing 800 μM salsolinol (SAL) and tested compounds in 0.1, 1 and 10 μM concentrations. N-acetylcystein were chosen as positive control. After 24 hours, the cell viability was measured by Calcein AM viability assay. The values in Table 2 show % of viability of all tested compounds relative to control. The control (medium with DMSO, <0.1% (v/v)) was postulated as 100% viability (see the first line of the table), while the SAL exposure lead to decrease of viability to 65.4±0.97%.

caspase-3,7 activity = test: Caspase-3,7 activity in salsolinol-induced model of PD on SH-SY5Y (Ac-DEVD-AMC); format: cell-based, human; conditions: Homo sapiens, SH-SY5Y, percentages of control (800 μM SAL = 100), 24 hour co-treatment, read-out: Caspase-3,7 activity (% of reduction)
Experimental: Similarly, as shown in previous assay, cells grew on 96 multiwell plates at density 20000 cells per well underwent differentiation and treatment procedure for salsolinol model. After 24 hour co-treatment with salsolinol, caspase-3,7 (casp-3,7) activity as marker of apoptosis was quantified by its substrate Ac-DEVD-AMC according to Carrasco et al. (2003, BioTechniques, 34, 1064-1067). In this model, overall casp-3,7 activity induced by 800 μM SAL was consider as 100% and thus the reduction in casp-3,7 was observed after treatment with the protective terpenoid derivatives. As shown in Table 4 and FIG. 2, 800 μM SAL induced 2.9-fold increase.

[4] = system: human neuron-like SH-SY5Y cells; test: 3NPA-induced model of Huntington's disease, neuron-like SH-SY5Y cells; format: cell-based; conditions: 10 μM (NAC), difference to 20 mM 3NPA, 48 h
Experimental: (§1) Before application of toxin 3-nitropropionic acid (3NPA) for mimicking Huntington's disease, the 3NPA was dissolved in water and neutralized by sodium hydroxide. SH-SY5Y cells were seeded in the same density and differentiated by the procedure shown above. Astrocyte cells A-172 were also seeded as described in previous section. Both cell lines were co-treated by 3NPA (20 mM for SH-SY5Y cells, […]) and tested compounds at 0.1, 1 and 10 μM concentration for 48 h.

astrocyte A-172 cells = test: 3NPA-induced model of Huntington's disease, astrocyte A-172 cells; format: cell-based, human; conditions: difference to 10 mM 3NPA, 48 h
Experimental: as §1

[5] = system: superoxide radical formation; test: Oxidative stress (superoxide radical formation, DHE) in 3NPA-induced model on SH-SY5Y; format: cell-based, human; conditions: 20 mM 3NPA = 100%, 24 hours
Experimental: Similarly, to previous assay, cells grown on 96-multiwell plates at density 20000 cells per well underwent differentiation and treatment procedure with 3-nitropropionic acid (3NPA) in this model. After 24 hours of co-treatment with 20 mM 3NPA, superoxide radical's formation as a marker of oxidative stress was quantified by dihydroethidium according to Kim et al. (2017, J. Med. Food, 20, 140-151). Briefly, neuron-like SH-SY5Y cells were centrifuged at 500 g for 5 min and 30 s, then media were replaced by 10 μM DHE PBS solution and kept at room temperature for 30 min. After that, DHE was read at 500 nm/580 nm (excitation/emission) by Infinite M200 Pro (Tecan) microplate reader. DHE is cell permeable dye which is selective for superoxide radical detection. Overall oxidative stress achieved by 20 mM 3NPA was consider as 100% and thus the reduction in superoxide radical's formation (OS reducing effect) was determined. As shown in Table 6 and FIG. 2, 20 mM 3NPA induced 2.7-fold increase in superoxide radical's formation.

glial A-172 cells [6] = test: Cytotoxicity, Calcein AM viability assay on glial A-172 cells; format: cell-based, human; conditions: 48 hours
[7] = system: human neuron-like SH-SY5Y cells; test: 3NPA-induced model of Huntington's disease, neuron-like SH-SY5Y cells; format: cell-based; conditions: difference to 20 mM 3NPA, 48 h

CC(=O)N[C@@H](CS)C(=O)O [NAC, N-acetyl cysteine, reference compound]
viability, percentage of DMSO control ([1]; 10 μM (NAC)): 92.7% | viability, percentage of DMSO control ([1]; 100 μM (NAC)): 97.5% | viability, percentage of DMSO control ([1]; 1000 μM (NAC)): 101.5% | effect on viability of astrocytes, in words (glial A-172 cells [2]): slight decrease in percentage of living cells | Neuroprotective effect (% of control) ([3]; 10 μM (NAC)): N/A (N/A = no protection) | Neuroprotective effect (% of control) ([3]; 100 μM (NAC)): N/A (N/A = no protection) | Neuroprotective effect (% of control) ([3]; 1000 μM (NAC)): 16.15 % of control | activity at 100 µM (caspase-3,7 activity; 100 μM (NAC)): 60.4% | activity at 1000 µM (caspase-3,7 activity; 1000 μM (NAC)): 55.2% | Neuro-protective effect (% of control) [4]: N/A (N/A = no protection) | Astro-protective effect (% of control) (astrocyte A-172 cells; A-172, column head 0.5 μM (positive controls)): N/A (N/A = no protection) | Astro-protective effect (% of control) (astrocyte A-172 cells; A-172, column head 5 μM (positive controls)): N/A (N/A = no protection) | Astro-protective effect (% of control) (astrocyte A-172 cells; A-172, column head 50 μM (positive controls)): N/A (N/A = no protection) | Superoxide radical formation (oxidative stress) % ([5]; 10 μM (NAC)): 79.6% | Superoxide radical formation (oxidative stress) % ([5]; 100 μM (NAC)): 79.7% | Superoxide radical formation (oxidative stress) % ([5]; 1000 μM (NAC)): 48.5% | viability, percentage of DMSO control (glial A-172 cells [6]; 10 μM (NAC)): 102.9% | viability, percentage of DMSO control (glial A-172 cells [6]; 100 μM (NAC)): 96.6% | viability, percentage of DMSO control (glial A-172 cells [6]; 1000 μM (NAC)): 83.0% | Neuro-protective effect (% of control) ([7]; 100 μM (NAC)): 51.35 % of control | Neuro-protective effect (% of control) ([7]; 1000 μM (NAC)): 65.72 % of control
